10 compounds from ChEMBL document CHEMBL5291721, “A preclinical secondary pharmacology resource illuminates target-adverse drug reaction associations of marketed drugs” (Nat Commun, 2023) can be followed below.

Among the targets are D(1A) dopamine receptor (Homo sapiens, UniProt P21728); D(3) dopamine receptor (Homo sapiens, UniProt P35462); Mu-type opioid receptor (Homo sapiens, UniProt P35372); Histamine H3 receptor (Homo sapiens, UniProt Q9Y5N1).
Experiment [1] has as its target 3',5'-cyclic-AMP phosphodiesterase 4A (Homo sapiens, UniProt P27815). Format: functional.
For experiment [2], the target named is T1, Thromboxane A2 receptor (Homo sapiens, UniProt P21731).
T1 sequence (P21731 whole entry): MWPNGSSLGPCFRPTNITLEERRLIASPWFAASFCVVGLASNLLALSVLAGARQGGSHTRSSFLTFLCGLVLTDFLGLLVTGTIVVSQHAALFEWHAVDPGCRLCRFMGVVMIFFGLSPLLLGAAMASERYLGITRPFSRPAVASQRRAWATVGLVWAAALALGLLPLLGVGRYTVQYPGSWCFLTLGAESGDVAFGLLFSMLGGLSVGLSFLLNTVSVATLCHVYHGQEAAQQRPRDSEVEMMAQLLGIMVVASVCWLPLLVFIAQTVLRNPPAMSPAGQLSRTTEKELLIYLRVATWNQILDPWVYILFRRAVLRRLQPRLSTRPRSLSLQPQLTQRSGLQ
Format: functional, cell-based.

For experiment [3], the target named is Prostaglandin G/H synthase 1 (Homo sapiens, UniProt P23219). Format: functional.
Sequence of Prostaglandin G/H synthase 1 (P23219 whole entry): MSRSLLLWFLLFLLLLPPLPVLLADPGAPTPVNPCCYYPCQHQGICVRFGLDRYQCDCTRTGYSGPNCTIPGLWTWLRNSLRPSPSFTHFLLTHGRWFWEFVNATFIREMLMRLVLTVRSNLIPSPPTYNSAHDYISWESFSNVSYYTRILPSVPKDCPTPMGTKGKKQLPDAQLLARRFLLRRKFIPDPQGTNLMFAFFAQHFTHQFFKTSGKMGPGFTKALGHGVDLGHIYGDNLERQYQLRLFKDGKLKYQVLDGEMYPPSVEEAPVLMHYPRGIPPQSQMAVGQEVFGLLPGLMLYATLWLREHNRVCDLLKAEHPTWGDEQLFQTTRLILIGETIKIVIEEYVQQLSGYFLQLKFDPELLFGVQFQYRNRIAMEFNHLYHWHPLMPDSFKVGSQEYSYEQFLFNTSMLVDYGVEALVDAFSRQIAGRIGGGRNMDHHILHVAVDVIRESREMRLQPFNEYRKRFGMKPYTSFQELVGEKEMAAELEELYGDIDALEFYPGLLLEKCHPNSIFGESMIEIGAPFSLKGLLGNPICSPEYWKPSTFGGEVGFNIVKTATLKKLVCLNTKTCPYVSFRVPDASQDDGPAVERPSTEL
The target of experiment [4] is Voltage-gated inwardly rectifying potassium channel KCNH2 (Homo sapiens, UniProt Q12809). The experiment is classed as functional.
Experiment [5] concerns the target T2, 5-hydroxytryptamine receptor 1A (Homo sapiens, UniProt P08908).
T2 sequence (P08908 whole entry): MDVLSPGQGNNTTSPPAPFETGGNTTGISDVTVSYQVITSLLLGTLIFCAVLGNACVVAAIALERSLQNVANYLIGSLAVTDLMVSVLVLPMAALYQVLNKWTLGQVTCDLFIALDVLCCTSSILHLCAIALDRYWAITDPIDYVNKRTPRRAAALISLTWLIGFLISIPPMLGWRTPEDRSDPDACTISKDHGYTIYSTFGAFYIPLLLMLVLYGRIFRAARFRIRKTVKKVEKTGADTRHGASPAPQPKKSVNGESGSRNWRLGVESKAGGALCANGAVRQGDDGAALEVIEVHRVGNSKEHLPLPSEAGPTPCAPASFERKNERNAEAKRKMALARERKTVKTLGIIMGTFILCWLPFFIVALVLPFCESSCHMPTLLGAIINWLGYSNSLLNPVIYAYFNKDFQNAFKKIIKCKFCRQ

Experiment [6] has as its target cGMP-inhibited 3',5'-cyclic phosphodiesterase 3A (Homo sapiens, UniProt Q14432). The experiment is classed as functional.
In experiment [7] the target is Sodium-dependent dopamine transporter (Homo sapiens, UniProt Q01959).
Sequence of Sodium-dependent dopamine transporter (Q01959 whole entry): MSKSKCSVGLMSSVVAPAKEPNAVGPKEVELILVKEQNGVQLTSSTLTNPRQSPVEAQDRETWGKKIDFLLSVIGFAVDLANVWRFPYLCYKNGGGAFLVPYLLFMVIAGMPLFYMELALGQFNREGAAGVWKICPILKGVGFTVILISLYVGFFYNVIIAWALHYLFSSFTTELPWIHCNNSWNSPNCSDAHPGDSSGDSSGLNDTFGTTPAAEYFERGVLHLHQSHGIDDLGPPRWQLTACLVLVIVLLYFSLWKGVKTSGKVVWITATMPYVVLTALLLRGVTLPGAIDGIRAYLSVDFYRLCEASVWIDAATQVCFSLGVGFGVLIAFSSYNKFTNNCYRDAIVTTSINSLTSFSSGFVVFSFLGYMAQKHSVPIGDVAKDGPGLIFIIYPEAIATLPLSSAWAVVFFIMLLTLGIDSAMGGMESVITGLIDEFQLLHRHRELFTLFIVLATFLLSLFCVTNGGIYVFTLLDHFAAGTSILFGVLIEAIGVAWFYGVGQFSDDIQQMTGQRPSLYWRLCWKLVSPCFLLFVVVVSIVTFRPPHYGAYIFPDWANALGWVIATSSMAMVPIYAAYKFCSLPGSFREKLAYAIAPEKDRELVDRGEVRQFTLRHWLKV
Experiment [8] concerns the target T1, Thromboxane A2 receptor. Format: functional, cell-based. This is another data set of the same source.
The next experiment has as its target Prothrombin (Homo sapiens, UniProt P00734). The experiment is classed as functional.
For experiment [9], the target named is Sodium-dependent noradrenaline transporter (Homo sapiens, UniProt P23975).
For experiment [10], the target named is T3, Alpha-2A adrenergic receptor (Homo sapiens, UniProt P08913).
T3 sequence (P08913 whole entry): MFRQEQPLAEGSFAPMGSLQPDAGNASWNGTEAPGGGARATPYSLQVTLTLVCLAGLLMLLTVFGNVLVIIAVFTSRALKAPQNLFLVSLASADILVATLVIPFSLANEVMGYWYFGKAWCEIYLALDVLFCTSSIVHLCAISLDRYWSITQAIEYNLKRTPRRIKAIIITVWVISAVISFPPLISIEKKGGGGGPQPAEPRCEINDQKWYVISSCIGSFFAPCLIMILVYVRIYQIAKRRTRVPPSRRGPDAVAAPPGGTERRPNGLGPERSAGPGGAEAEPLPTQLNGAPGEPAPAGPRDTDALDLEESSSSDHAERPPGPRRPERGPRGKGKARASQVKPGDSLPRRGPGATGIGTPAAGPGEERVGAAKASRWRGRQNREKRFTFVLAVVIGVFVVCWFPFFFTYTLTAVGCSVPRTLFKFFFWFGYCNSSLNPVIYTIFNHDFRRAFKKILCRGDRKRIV

The target of experiment [11] is 5-hydroxytryptamine receptor 2B (Homo sapiens, UniProt P41595). The experiment is classed as functional, cell-based.
Sequence of 5-hydroxytryptamine receptor 2B (P41595 whole entry): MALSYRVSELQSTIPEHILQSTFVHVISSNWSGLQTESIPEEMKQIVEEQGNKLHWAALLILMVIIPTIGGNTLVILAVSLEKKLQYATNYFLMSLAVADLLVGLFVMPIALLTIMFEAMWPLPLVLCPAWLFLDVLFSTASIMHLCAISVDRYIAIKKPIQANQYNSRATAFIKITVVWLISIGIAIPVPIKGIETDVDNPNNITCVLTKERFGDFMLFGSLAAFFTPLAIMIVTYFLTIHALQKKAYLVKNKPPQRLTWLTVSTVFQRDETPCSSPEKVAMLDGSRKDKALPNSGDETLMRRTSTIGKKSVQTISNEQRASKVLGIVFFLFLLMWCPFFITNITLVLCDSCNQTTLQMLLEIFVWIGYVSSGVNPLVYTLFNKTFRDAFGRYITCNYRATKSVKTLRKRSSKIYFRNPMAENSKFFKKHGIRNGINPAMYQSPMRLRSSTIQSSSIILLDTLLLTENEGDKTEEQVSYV
The target in another experiment is Acetylcholinesterase (Homo sapiens, UniProt P22303). Format: functional.
Sequence of Acetylcholinesterase (P22303 whole entry): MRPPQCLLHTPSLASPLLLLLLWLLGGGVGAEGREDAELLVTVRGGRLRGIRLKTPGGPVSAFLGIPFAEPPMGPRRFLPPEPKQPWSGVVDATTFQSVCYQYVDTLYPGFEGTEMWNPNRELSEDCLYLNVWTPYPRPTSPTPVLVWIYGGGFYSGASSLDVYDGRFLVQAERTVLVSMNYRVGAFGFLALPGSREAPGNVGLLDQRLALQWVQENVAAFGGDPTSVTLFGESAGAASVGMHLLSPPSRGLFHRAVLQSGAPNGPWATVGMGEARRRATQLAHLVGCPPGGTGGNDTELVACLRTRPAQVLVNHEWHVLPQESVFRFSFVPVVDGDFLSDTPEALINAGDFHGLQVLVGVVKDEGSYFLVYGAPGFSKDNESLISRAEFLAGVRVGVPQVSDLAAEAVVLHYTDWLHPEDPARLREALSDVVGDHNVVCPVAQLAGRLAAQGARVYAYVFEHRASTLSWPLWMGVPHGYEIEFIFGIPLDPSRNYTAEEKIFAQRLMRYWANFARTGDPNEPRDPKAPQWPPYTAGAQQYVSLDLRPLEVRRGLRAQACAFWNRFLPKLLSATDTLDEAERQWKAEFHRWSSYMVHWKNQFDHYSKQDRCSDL

Usually AC50 stands for the midpoint of the concentration-response curve, whichever way the signal moves.
Note: assay procedure not described here.

Sequence of Mu-type opioid receptor (P35372 whole entry): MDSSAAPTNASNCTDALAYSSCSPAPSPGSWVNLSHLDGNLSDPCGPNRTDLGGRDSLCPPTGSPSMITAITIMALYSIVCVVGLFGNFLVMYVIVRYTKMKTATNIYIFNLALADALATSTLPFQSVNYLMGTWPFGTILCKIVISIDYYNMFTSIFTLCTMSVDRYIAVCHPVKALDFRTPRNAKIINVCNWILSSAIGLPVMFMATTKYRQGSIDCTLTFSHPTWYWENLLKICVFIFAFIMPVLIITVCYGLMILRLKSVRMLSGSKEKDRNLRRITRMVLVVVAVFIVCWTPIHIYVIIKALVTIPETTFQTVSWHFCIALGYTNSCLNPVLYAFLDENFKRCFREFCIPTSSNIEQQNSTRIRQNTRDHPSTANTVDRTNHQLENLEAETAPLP
Sequence of D(3) dopamine receptor (P35462 whole entry): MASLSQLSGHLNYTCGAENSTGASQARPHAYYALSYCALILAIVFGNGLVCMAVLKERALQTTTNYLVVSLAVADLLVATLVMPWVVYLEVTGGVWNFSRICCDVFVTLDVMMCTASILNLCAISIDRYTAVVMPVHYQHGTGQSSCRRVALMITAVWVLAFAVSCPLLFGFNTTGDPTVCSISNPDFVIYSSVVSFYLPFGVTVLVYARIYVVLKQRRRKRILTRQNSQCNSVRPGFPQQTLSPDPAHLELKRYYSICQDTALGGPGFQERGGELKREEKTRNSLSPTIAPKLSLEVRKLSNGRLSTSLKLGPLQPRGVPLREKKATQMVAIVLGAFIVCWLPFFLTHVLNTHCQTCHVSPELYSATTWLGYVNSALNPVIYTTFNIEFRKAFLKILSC
Sequence of D(1A) dopamine receptor (P21728 whole entry): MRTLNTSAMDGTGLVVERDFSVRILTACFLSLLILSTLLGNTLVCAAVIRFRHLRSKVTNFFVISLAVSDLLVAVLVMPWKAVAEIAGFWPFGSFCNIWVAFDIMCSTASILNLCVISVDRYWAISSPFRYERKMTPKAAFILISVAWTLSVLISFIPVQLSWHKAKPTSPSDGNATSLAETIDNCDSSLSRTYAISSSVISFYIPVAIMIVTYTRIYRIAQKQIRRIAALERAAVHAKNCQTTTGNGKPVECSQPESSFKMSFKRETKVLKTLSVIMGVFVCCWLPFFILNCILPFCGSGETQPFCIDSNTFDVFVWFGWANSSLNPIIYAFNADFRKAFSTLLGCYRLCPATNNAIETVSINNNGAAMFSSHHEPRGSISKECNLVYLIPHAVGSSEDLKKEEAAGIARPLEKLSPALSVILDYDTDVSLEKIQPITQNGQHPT
Sequence of 3',5'-cyclic-AMP phosphodiesterase 4A (P27815 whole entry): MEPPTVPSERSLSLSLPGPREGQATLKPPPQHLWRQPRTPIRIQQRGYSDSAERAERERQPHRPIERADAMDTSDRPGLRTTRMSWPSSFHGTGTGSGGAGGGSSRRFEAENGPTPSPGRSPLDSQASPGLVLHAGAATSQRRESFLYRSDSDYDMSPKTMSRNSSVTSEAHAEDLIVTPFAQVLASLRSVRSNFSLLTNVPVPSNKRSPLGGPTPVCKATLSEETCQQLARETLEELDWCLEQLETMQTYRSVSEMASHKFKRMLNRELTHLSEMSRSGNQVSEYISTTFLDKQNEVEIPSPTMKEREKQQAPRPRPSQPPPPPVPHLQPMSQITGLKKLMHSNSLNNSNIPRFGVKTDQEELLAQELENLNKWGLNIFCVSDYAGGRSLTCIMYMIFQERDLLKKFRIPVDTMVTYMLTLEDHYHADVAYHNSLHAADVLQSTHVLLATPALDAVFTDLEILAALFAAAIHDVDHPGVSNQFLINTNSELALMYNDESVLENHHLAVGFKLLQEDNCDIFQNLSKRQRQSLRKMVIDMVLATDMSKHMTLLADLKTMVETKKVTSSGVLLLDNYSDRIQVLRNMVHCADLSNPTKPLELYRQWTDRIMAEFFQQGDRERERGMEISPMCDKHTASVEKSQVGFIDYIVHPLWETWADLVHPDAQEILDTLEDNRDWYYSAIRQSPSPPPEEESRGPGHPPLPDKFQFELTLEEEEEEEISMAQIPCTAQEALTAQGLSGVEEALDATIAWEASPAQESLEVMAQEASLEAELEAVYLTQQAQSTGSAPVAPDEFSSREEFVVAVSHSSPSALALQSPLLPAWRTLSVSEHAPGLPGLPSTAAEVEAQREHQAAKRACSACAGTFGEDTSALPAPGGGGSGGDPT
Sequence of Histamine H3 receptor (Q9Y5N1 whole entry): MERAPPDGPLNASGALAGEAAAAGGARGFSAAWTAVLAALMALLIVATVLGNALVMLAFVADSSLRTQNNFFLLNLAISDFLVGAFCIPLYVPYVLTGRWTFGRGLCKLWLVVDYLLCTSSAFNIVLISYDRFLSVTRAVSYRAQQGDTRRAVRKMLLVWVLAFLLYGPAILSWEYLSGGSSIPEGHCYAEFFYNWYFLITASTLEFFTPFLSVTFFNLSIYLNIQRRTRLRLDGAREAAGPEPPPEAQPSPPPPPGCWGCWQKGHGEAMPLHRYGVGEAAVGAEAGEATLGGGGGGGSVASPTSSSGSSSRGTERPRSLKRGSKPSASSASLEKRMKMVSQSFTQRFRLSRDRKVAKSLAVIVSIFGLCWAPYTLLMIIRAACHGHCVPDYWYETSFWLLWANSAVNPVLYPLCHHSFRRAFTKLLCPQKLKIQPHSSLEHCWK

Turning to `COc1c2ccoc2cc2oc(=O)ccc12` [BERGAPTEN], the AC50 (at D(1A) dopamine receptor; in experiment [1]; at Thromboxane A2 receptor [2]; in experiment [3]; in [4]; in experiment [5]) was more than 30 µM throughout. Moreover, the AC50 (in experiment [6]; at D(3) dopamine receptor; on Mu-type opioid receptor; in experiment [7]; on Thromboxane A2 receptor [8]; at Histamine H3 receptor) was more than 30 µM each time. The AC50 (at Prothrombin; in [9]; in [10]; in experiment [11]; on Acetylcholinesterase) was more than 30 µM in each case.

As to `CNC(=O)Oc1cccc2ccccc12` [CARBARIL], the half-maximal activity concentration (AC50) on D(1A) dopamine receptor was more than 30 µM; in experiment [1], more than 30 µM; on Thromboxane A2 receptor [2] it was more than 30 µM; in experiment [3], 3.71 µM; in [4], more than 30 µM; in experiment [5], more than 30 µM. Also, the AC50 (in experiment [6]; on D(3) dopamine receptor; on Mu-type opioid receptor; in experiment [7]; on Thromboxane A2 receptor [8]; at Histamine H3 receptor) was more than 30 µM each time. Besides, the half-maximal activity concentration (AC50) (on Prothrombin; in experiment [9]; in experiment [10]; in experiment [11]; on Acetylcholinesterase) was more than 30 µM each time.

Take `C/C=C/C/C=C/CCC(=O)[C@H]1O[C@H]1C(N)=O` [CERULENIN]: the half-maximal activity concentration (AC50) (on D(1A) dopamine receptor; in experiment [1]; at Thromboxane A2 receptor [2]; in experiment [3]; in [4]; in [5]) was more than 30 µM in each case. Moreover, the AC50 (in experiment [6]; on D(3) dopamine receptor; on Mu-type opioid receptor; in experiment [7]; on Thromboxane A2 receptor [8]; at Histamine H3 receptor) was more than 30 µM each time. Further, the AC50 (at Prothrombin; in experiment [9]; in [10]; in [11]; at Acetylcholinesterase) was more than 30 µM each time.

For `C[C@H]1O[C@@H](n2cc(F)c(=O)[nH]c2=O)[C@H](O)[C@@H]1O` [DOXIFLURIDINE], the AC50 (at D(1A) dopamine receptor; in experiment [1]; at Thromboxane A2 receptor [2]; in [3]; in experiment [4]; in experiment [5]) was more than 30 µM each time. Further, the half-maximal activity concentration (AC50) (in [6]; at D(3) dopamine receptor; at Mu-type opioid receptor; in experiment [7]; on Thromboxane A2 receptor [8]; on Histamine H3 receptor) was more than 30 µM throughout. The concentration at half-maximal activity (AC50) (at Prothrombin; in experiment [9]; in experiment [10]; in [11]; on Acetylcholinesterase) was more than 30 µM each time.

For `C#C[C@]1(O)CC[C@H]2[C@@H]3CCC4=CC(=O)CC[C@@H]4[C@H]3C(=C)C[C@@]21CC` [ETONOGESTREL], the AC50 (on D(1A) dopamine receptor; in experiment [1]; on Thromboxane A2 receptor [2]; in experiment [3]; in experiment [4]; in experiment [5]) was more than 30 µM each time. Besides, the half-maximal activity concentration (AC50) was more than 30 µM in [6]; more than 30 µM at D(3) dopamine receptor; 10.5 µM at Mu-type opioid receptor; more than 30 µM in experiment [7]; more than 30 µM at Thromboxane A2 receptor [8]; more than 30 µM at Histamine H3 receptor. Further, the concentration at half-maximal activity (AC50) (at Prothrombin; in [9]; in [10]; in experiment [11]; on Acetylcholinesterase) was more than 30 µM throughout.

Regarding `CC[C@H](c1ccc(O)cc1)[C@@H](CC)c1ccc(O)cc1` [HEXESTROL], the concentration at half-maximal activity (AC50) at D(1A) dopamine receptor was 15.5 µM; in experiment [1], more than 30 µM; at Thromboxane A2 receptor [2] it was more than 3 µM; in [3], more than 30 µM; in [4] it was more than 30 µM; in experiment [5] it was more than 30 µM. Besides, the AC50 in experiment [6] is more than 30 µM; on D(3) dopamine receptor it was 17.5 µM; at Mu-type opioid receptor, 15 µM; in [7], 3.31 µM; on Thromboxane A2 receptor [8], 21 µM; on Histamine H3 receptor, more than 30 µM. Besides, the AC50 on Prothrombin was more than 30 µM; in experiment [9], 8.77 µM; in experiment [10], more than 30 µM; in [11], more than 30 µM; on Acetylcholinesterase it was more than 30 µM.

As for `O=C1/C(=C2\Nc3ccc(S(=O)(=O)O)cc3C2=O)Nc2ccc(S(=O)(=O)O)cc21` [INDIGOTINDISULFONATE], the AC50 on D(1A) dopamine receptor was more than 30 µM; in experiment [1] it was more than 30 µM; at Thromboxane A2 receptor [2], more than 30 µM; in experiment [3] it was 21.5 µM; in experiment [4], more than 30 µM; in experiment [5] it was more than 30 µM. The AC50 (in [6]; at D(3) dopamine receptor; on Mu-type opioid receptor; in experiment [7]; on Thromboxane A2 receptor [8]; at Histamine H3 receptor) was more than 30 µM in each case. Moreover, the AC50 is 2.83 µM at Prothrombin; more than 30 µM in experiment [9]; more than 30 µM in [10]; more than 30 µM in experiment [11]; more than 30 µM at Acetylcholinesterase.

`CCOC(=O)c1c(C)cc2c(CO)n[nH]c(=O)c2c1C` [OXAGRELATE]: the half-maximal activity concentration (AC50) on D(1A) dopamine receptor is more than 30 µM; in experiment [1], more than 30 µM; at Thromboxane A2 receptor [2] it was more than 30 µM; in experiment [3] it was more than 30 µM; in experiment [5], more than 30 µM; in [6], 6.48 µM. Further, the AC50 (at D(3) dopamine receptor; on Mu-type opioid receptor; in experiment [7]; on Thromboxane A2 receptor [8]; at Histamine H3 receptor; at Prothrombin) was more than 30 µM in each case. Besides, the AC50 (in experiment [9]; in experiment [10]; in experiment [11]; at Acetylcholinesterase) was more than 30 µM throughout.

As for `CC[C@@]1(O)C(=O)OCc2c1cc1n(c2=O)Cc2cc3c([N+](=O)[O-])cccc3nc2-1` [RUBITECAN], the half-maximal activity concentration (AC50) at D(1A) dopamine receptor was more than 30 µM; in [1] it was more than 30 µM; at Thromboxane A2 receptor [2], more than 10 µM; in [3], 26.8 µM; in experiment [5], more than 30 µM; in experiment [6] it was more than 30 µM. The half-maximal activity concentration (AC50) (on D(3) dopamine receptor; on Mu-type opioid receptor; in experiment [7]; at Thromboxane A2 receptor [8]; at Histamine H3 receptor; on Prothrombin) was more than 30 µM in each case. Further, the concentration at half-maximal activity (AC50) in [9] is more than 30 µM; in [10], more than 30 µM; in experiment [11], more than 30 µM; on Acetylcholinesterase, 3.65 µM.

Consider `CC(=O)Oc1cc(C(F)(F)F)ccc1C(=O)O` [TRIFLUSAL], for which the AC50 (on D(1A) dopamine receptor; in experiment [1]; on Thromboxane A2 receptor [2]; in [3]; in [5]; in experiment [6]) was more than 30 µM in each case. Further, the AC50 (at D(3) dopamine receptor; at Mu-type opioid receptor; in experiment [7]; on Thromboxane A2 receptor [8]; on Histamine H3 receptor; on Prothrombin) was more than 30 µM each time. In addition, the half-maximal activity concentration (AC50) (in experiment [9]; in experiment [10]; in [11]; on Acetylcholinesterase) was more than 30 µM throughout.
